Among the test systems are RXF 393 renal; HCT-15 colon; OVCAR-5 ovarian; HS 578T breast; U251 CNS; A498 renal; NCI-H226 lung; HT29 colon; OVCAR-4 ovarian; OVCAR-3 ovarian.
What all share (test): NCI anticancer screen, dose series, 48 h

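1) Cells in 96-well plates. 2) Compound, 48 h, 5 concentrations. 3) Linear interpolation between surrounding doses. 4) Unreached endpoint = highest concentration. GI50: concentration for 50% inhibition of growth. TGI marks complete inhibition of growth.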 A value given as a limit tells only on which side of the number the result lay.

On to `COc1ccc(CC(NC(=O)[C@H](C)NC(=O)CN2CCOCC2)C(=O)N[C@@H](Cc2ccccc2)C(=O)[C@@]2(C)CO2)cc1` (stereo not given in full), for which the GI50 was 237 nM with RXF 393 renal; 5640 nM with HCT-15 colon; 272 nM in the assay on OVCAR-5 ovarian; 286 nM in the assay on HS 578T breast; 271 nM in the assay with U251 CNS; 224 nM with A498 renal. The GI50 with NCI-H226 lung is 0.246 µM; in the assay on HT29 colon it was 339 nM; in the assay with OVCAR-4 ovarian it was 228 nM; with OVCAR-3 ovarian it was 198 nM. In addition, the TGI in the assay on RXF 393 renal was found to be 658 nM; in the assay on HCT-15 colon, 76.3 µM; in the assay with OVCAR-5 ovarian it was 1.19 µM; in the assay on HS 578T breast, 2.12 µM; in the assay on U251 CNS it was 1.07 µM; in the assay with A498 renal it was 893 nM. In addition, the TGI in the assay on NCI-H226 lung is 0.725 µM; with HT29 colon, more than 33.9 µM; with OVCAR-4 ovarian, 0.856 µM; in the assay with OVCAR-3 ovarian it was 0.421 µM.
As for `COc1cc(NCc2ccccc2O)c2ncccc2c1`, the GI50 was 18500 nM in the assay with RXF 393 renal; 7090 nM with HCT-15 colon; 80300 nM with OVCAR-5 ovarian; 24200 nM in the assay with HS 578T breast; 23700 nM with U251 CNS; 13200 nM with A498 renal. Further, the GI50 in the assay with NCI-H226 lung was 20.8 µM; in the assay with HT29 colon, 19400 nM; with OVCAR-4 ovarian it was 13700 nM; with OVCAR-3 ovarian, 20600 nM. Further, the TGI with RXF 393 renal is 68800 nM; in the assay on HCT-15 colon, more than 100 µM; with OVCAR-5 ovarian, more than 100 µM; with HS 578T breast, more than 100 µM; in the assay on U251 CNS, more than 100 µM; in the assay with A498 renal it was 60500 nM. Moreover, the TGI in the assay on NCI-H226 lung is more than 100 µM; in the assay with HT29 colon, 94.1 µM; in the assay on OVCAR-4 ovarian, more than 100 µM; with OVCAR-3 ovarian, 84.5 µM.
Take `CCc1c(O)c2c(c(O)c1C(C)=O)C(=O)c1c(cc(O)c(C(=O)O)c1C(=O)O)C2=O`: the TGI with RXF 393 renal is more than 100000 nM; with HCT-15 colon it was more than 100 µM; in the assay on OVCAR-5 ovarian, more than 100 µM; in the assay with HS 578T breast, more than 100 µM; in the assay on U251 CNS, more than 100 µM; in the assay with A498 renal, more than 100000 nM. In addition, the TGI with NCI-H226 lung, with HT29 colon, with OVCAR-4 ovarian and in the assay on OVCAR-3 ovarian was more than 100 µM each time.
Take `CNC(=O)OC1C(O[C@H]2C[C@H]3[C@@H]4CC=C5C[C@@H](O)CC[C@]5(C)[C@H]4CC[C@]3(C)[C@H]2[C@H](C)C(=O)CCC(C)C)OCC(O)C1OC1OCC(O)C(O)C1OC(=O)c1ccc(OC)cc1` (stereo not given in full): the GI50 in the assay with RXF 393 renal is less than 2.75 nM; in the assay with HCT-15 colon it was 677 nM; in the assay on OVCAR-5 ovarian, 235 nM; in the assay on HS 578T breast it was less than 2.75 nM; in the assay on U251 CNS it was 3.34 nM; in the assay with A498 renal it was 4.46 nM. The GI50 in the assay with HT29 colon is 63.1 nM; in the assay on OVCAR-4 ovarian, 291 nM; in the assay with OVCAR-3 ovarian it was 1030 nM. Also, the TGI in the assay on RXF 393 renal came to 11.1 nM; in the assay with HCT-15 colon, 4.01 µM; in the assay with OVCAR-5 ovarian, 5.01 µM; in the assay on HS 578T breast, 0.0584 µM; in the assay with U251 CNS, 3.87 µM; in the assay with A498 renal, 20.5 nM. Besides, the figures for the TGI in the assay with HT29 colon, in the assay on OVCAR-4 ovarian and with OVCAR-3 ovarian were 4.92 µM, 7.36 µM and 6.1 µM, respectively.
For `CCCCCCCCCCCCCC(=O)C(C)N` (stereo not given), the GI50 is 4460 nM in the assay with RXF 393 renal; 917 nM in the assay on HCT-15 colon; 10600 nM in the assay with OVCAR-5 ovarian; 9160 nM with HS 578T breast; 8290 nM in the assay with U251 CNS; 21.8 µM in the assay with NCI-H226 lung. Moreover, the GI50 in the assay with HT29 colon is 3890 nM; in the assay with OVCAR-4 ovarian, 3900 nM; with OVCAR-3 ovarian, 14100 nM. The TGI with RXF 393 renal was 17000 nM; with HCT-15 colon, 4 µM; in the assay with OVCAR-5 ovarian, 23.8 µM; in the assay with HS 578T breast it was 29.1 µM; in the assay with U251 CNS, 21.7 µM; in the assay with NCI-H226 lung, 44.3 µM. The values for the TGI with HT29 colon, with OVCAR-4 ovarian and in the assay on OVCAR-3 ovarian were 13.7 µM, 16.1 µM and 28.3 µM, respectively.
For `CCCCCCNc1nc(N2CCOCC2)c2[nH]c(NCCCCCC)nc2n1`, the GI50 in the assay with RXF 393 renal was 1360 nM; in the assay with HCT-15 colon, 1640 nM; in the assay with OVCAR-5 ovarian it was 1610 nM; with HS 578T breast, 1370 nM; with U251 CNS, 1610 nM; in the assay with A498 renal it was 1110 nM. Besides, the GI50 with NCI-H226 lung was 1.7 µM; in the assay with OVCAR-4 ovarian it was 1430 nM; in the assay on OVCAR-3 ovarian it was 1760 nM. The TGI in the assay with RXF 393 renal came out at 2670 nM; in the assay on HCT-15 colon it was 3.22 µM; with OVCAR-5 ovarian, 2.96 µM; in the assay on HS 578T breast it was 3.16 µM; in the assay on U251 CNS, 3.18 µM; with A498 renal, 2310 nM. Also, the TGI in the assay on NCI-H226 lung was 4 µM; in the assay on OVCAR-4 ovarian, 2.87 µM; in the assay on OVCAR-3 ovarian, 3.14 µM.
Consider `Cc1ccc2c(c1)O/C(=C\c1ccc([N+](=O)[O-])o1)C2=O`, for which the GI50 was 1340 nM in the assay with RXF 393 renal; 393 nM in the assay on HCT-15 colon; 2400 nM in the assay on OVCAR-5 ovarian; 2090 nM in the assay with HS 578T breast; 1820 nM in the assay on U251 CNS; 3770 nM with A498 renal. The GI50 in the assay on HT29 colon is 659 nM; in the assay with OVCAR-4 ovarian, 1470 nM; in the assay on OVCAR-3 ovarian it was 1530 nM. Further, the TGI worked out at 2740 nM in the assay on RXF 393 renal; 1.54 µM in the assay with HCT-15 colon; 4.75 µM with OVCAR-5 ovarian; 6.25 µM with HS 578T breast; 3.98 µM in the assay with U251 CNS; 18600 nM with A498 renal. In addition, the TGI turned out to be 2.08 µM in the assay with HT29 colon, 2.84 µM in the assay on OVCAR-4 ovarian and 2.86 µM in the assay on OVCAR-3 ovarian.
For the molecule `C#Cc1cccc(Oc2ccc(NC(=O)CCl)cc2)c1`, the GI50 is more than 82500 nM with RXF 393 renal; 6360 nM in the assay with HCT-15 colon; more than 82500 nM in the assay with OVCAR-5 ovarian; more than 82500 nM with HS 578T breast; more than 82500 nM in the assay on U251 CNS; more than 82.5 µM in the assay with NCI-H226 lung. Further, the GI50 is more than 82500 nM with HT29 colon, 33300 nM with OVCAR-4 ovarian and more than 82500 nM in the assay on OVCAR-3 ovarian. Besides, the TGI in the assay with RXF 393 renal is more than 82500 nM; in the assay with HCT-15 colon, more than 82.5 µM; in the assay on OVCAR-5 ovarian it was more than 82.5 µM; in the assay on HS 578T breast, more than 82.5 µM; with U251 CNS, more than 82.5 µM; in the assay on NCI-H226 lung, more than 82.5 µM. The TGI in the assay on HT29 colon, with OVCAR-4 ovarian and in the assay with OVCAR-3 ovarian was more than 82.5 µM each time.

For the origin of these results see PubChem BioAssay (NCI).
